System: 786-0 and HMLE-Snail (E-Snail) cells versus WT7, HMLE, HK-2, NP-1 and BEAS-2B cells
Assay: Proliferation assay on normal and cancer cell lines
Assay type: cell-based, human
Conditions: 100 nM chaetocin for 1 day
Source text: Mesenchymal, TIC-rich, chemotherapy-resistant cell lines used in this experiment are the clear cell renal carcinoma cell line 786-0 and the human mammary epithelial (HMLE) cell line in which the zinc finger protein SNAI1 (SNAIL) is overexpressed, E-SNAIL. The isogenic epithelial, TIC-depleted, chemotherapy sensitive cell lines used as controls are the clear cell renal carcinoma cell line WT7 (modified 786-0 cells) and the human mammary epithelial (HMLE) cell with […].
To test if other mesenchymal, TIC-rich, chemotherapy resistant cell lines of different tissue origin (e.g. kidney) are also sensitive to chaetocin treatment, normal and cancerous breast (control) and renal cells were treated in culture with 100 nM chaetocin for 1 day, after which cell growth was assayed using a proliferation assay (FIG. 1C). The tested cells included a 786-0 clear cell renal cell carcinoma (ccRCC) cell line, which is defective in the Von Hippel-Lindau tumor suppressor (VHL), enriched in TIC, and difficult to eliminate by conventional chemotherapy in patients carrying this mutation. WT7 cell line is a modified 786-0 cell line in which VHL is re-introduced artificially, rendering them epithelial, TIC-depleted and susceptible to chemotherapy. […]

In the case of `CN1C(=O)[C@@]23C[C@]4([C@]56C[C@@]78SS[C@](CO)(C(=O)N7[C@H]5Nc5ccccc56)N(C)C8=O)c5ccccc5N[C@@H]4N2C(=O)[C@@]1(CO)SS3` [chaetocin], the inhibition of proliferation is reported as “selectively inhibits the growth of mesenchymal, TIC-rich, chemotherapy resistant breast and kidney cancer cell lines”.
